Results on 18 compounds are retold here after patent US6653478B2, “Substituted benzimidazol-2-ones as vasopressin receptor antagonists and neuropeptide Y modulators” (Ortho-McNeil Pharmaceutical, Inc., priority 2000, dated 2003).

Assay [1] concerns the target T1, human V1b receptor (Homo sapiens, UniProt P47901).
T1 sequence (P47901 1-424): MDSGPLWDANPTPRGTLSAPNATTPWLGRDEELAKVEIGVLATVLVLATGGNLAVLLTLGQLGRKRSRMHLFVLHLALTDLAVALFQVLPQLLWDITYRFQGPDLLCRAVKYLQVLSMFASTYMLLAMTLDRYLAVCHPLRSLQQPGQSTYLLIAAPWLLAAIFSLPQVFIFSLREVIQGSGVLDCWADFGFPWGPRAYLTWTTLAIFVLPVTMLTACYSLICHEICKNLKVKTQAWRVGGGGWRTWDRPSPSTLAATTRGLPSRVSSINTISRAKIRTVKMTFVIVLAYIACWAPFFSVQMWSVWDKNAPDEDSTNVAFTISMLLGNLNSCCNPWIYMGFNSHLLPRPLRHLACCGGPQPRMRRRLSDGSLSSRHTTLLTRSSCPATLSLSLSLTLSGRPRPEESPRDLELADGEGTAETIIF
Put plainly: V1b binding assay (3H-AVP displacement, HEK-293 membranes). The arrangement: expressed in transfected cells; host or cells: HEK-293 (membranes). The conditions noted are these: for inhibition at 10 µM: 10 μM compound, read-out: V1b % Inh @10; for inhibition at 1 µM: 1.0 μM compound, read-out: V1b@1.0, % Inh. The procedure, abridged: (§1)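 Read-out is filter-retained 3H-AVP, counted by scintillation after washing with cold saline/0.05% Tween 20. Binding ran 1 hour at room temperature in pH 7.5 buffer with protease inhibitors; 1.25 μM unlabelled AVP gave non-specific binding.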

Assay [2] concerns the target human V2 receptor (Homo sapiens, UniProt P30518). Put plainly: V2 binding assay (3H-AVP displacement, HEK-293 membranes). The arrangement: expressed in transfected cells; host or cells: HEK-293 (membranes). The conditions noted are these: 1.0 μM compound; read-out: V2@1.0, % Inh. The method in brief:
as §1

Assay [3] has as its target T2, NPY2 receptors (Homo sapiens, UniProt P49146).
T2 construct: Cell Membranes from KAN-TS cells having NPY2 receptors; endogenous in cells; host or cells: KAN-TS cells (membranes)
T2 sequence (P49146 1-381): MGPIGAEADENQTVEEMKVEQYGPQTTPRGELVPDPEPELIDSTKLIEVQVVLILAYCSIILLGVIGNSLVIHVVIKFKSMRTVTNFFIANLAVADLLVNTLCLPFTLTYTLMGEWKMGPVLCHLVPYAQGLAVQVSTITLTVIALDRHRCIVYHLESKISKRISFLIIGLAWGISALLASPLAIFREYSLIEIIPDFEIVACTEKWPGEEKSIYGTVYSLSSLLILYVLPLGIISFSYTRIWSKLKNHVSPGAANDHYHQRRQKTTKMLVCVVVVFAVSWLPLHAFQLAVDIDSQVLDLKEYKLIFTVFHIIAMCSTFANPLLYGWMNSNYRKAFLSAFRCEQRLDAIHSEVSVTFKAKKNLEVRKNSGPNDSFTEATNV
The assay can be described thus: Neuropeptide Y receptor binding assay (125I-PYY, KAN-TS cell membranes). The conditions noted are these: 10 μM compound; read-out: NPY-2@10, % Inh. Here is the method:
Neuropeptide Y Receptor Binding Assay
Load 96-well RIA racks with RIA vials (Sarstedt, cat. #73.1055)
Prepare membranes—use 2×15 cm confluent plates/96-well assay plate
Add 14 mls Homogenization buffer/cell pellet
Homogenize at high speed for 15 seconds
Transfer to 15 ml conical tube and spin 5′ at 4° C. at setting 3 in RT6000 centrifuge
Transfer supernatant to 30 ml Corex tube
Balance and spin 25′ at 15,000 rpm at 4° C.
Resuspend pellet in 10 mls Binding buffer
Homogenize at high speed for 15 sec.
Bring volume up to 50 mls in Binding buffer (25 mls/2×96-well plates)
Keep on ice until use or freeze in aliquots (2 plates/tube) in −70° C.
Prepare ^125I-PYY (for 2×96-well compound plates)
Dilute 50 uCi ^125I-PYY in 1 ml H2O
Add 0.4 ml 10% BSA to 20 ml Binding buffer
Add 150 μl ^125I-PYY, mix well
NSB (1 μM PYY final conc.): 40 μl PYY (100 μM stock)+60 μl 30% DMSO in HEPES=40 μM PYY—add 5 μl/well
Total Binding: Add 5 μl/well of Compound Diluent
Add 5 μl compound (final conc. @10 μM)
Incubate at R.T. for 1 hr.
Spin plates for 10′ at setting 9 in RT6000 centrifuge
Aspirate supernatant from tubes, add 300 μl PBS and aspirate again.
After plates are washed and aspirated, put individual tubes in 12×75 mm polypropylene carrier tubes. Count on gamma counter.

Assay [4] addresses human V1a receptor (Homo sapiens, UniProt P37288). The assay can be described thus: V1a binding assay (3H-AVP displacement, HEK-293 membranes). More on the design: expressed in transfected cells; host or cells: HEK-293 (membranes). The settings on record: for inhibition at 1 µM: 1.0 μM compound, read-out: V1a@1.0, % Inh; for inhibition at 0.1 µM: 0.1 μM compound, read-out: V1a % Inh @0.1. The method in brief: as §1

SMILES strings stand for the structures. pIC50: −log10 of the molar value. Counter-ions that a name gives are not always drawn.

Sequence of human V1a receptor (P37288 whole entry): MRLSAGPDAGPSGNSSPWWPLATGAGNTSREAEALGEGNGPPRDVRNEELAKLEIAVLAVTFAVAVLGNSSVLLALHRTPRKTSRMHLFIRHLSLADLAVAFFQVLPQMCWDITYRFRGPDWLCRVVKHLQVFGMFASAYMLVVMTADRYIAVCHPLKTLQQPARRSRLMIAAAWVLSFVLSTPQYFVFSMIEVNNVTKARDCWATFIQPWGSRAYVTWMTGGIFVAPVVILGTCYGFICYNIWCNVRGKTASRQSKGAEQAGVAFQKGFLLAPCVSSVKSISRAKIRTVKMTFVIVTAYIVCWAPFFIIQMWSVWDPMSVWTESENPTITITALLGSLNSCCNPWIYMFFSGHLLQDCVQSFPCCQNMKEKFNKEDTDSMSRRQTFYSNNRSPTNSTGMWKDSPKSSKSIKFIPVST
Sequence of human V2 receptor (P30518 whole entry): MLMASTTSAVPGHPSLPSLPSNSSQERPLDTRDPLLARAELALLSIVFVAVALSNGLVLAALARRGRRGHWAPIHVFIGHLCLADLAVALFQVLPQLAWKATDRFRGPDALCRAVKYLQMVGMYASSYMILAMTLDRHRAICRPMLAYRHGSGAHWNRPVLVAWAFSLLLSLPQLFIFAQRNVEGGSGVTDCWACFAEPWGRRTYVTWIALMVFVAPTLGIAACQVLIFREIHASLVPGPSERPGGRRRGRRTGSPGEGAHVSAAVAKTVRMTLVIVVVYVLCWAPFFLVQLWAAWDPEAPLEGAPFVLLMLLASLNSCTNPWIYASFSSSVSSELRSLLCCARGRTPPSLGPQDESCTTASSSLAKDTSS

As to `COc1cc(NC(=S)N2CCC(n3c(=O)[nH]c4ccccc43)CC2)cc(OC)c1OC` [Compound 6], the inhibition at 10 µM in assay [1] stood at 0%; in assay [3], 16%. In addition, the inhibition at 1 µM in assay [2] was 9%; in assay [4], 20%.
For `O=C(NCc1ccccc1)N1CCC(n2c(=O)[nH]c3ccccc32)CC1` [Compound 74] the same measures were 29%, 0%, 0% and 0%.
Consider `CCN(CC)CCn1c(=O)n(C2CCN(C(=S)NC(Cc3ccccc3)C(=O)O)CC2)c2ccccc21` [Compound 43, 1-(N1-Piperidinocarbothioyl-(2-phenyl-1-L-carboxy)amino-4-yl)-3-(2-diethyaminoethyl)-1,3-dihydrobenzimidazol-2-one], for which the inhibition at 10 µM stood at 16% in assay [1] and 13% in assay [3]. For the same compound, the figures for the inhibition at 1 µM in assay [2] and in assay [4] were 10% and 39%, respectively.
Take `CCN(CC)CCn1c(=O)n(C2CCN(C(=O)Nc3ccccc3C)CC2)c2ccccc21` [Compound 92, 1-[(N1-Piperidinocarbonyl-2-methylphenylamino)-4-yl]-3-(2-N,Ndiethylaminoethyl)-1,3-dihydrobenzimidazol-2-one]: the inhibition at 1 µM was found to be 5% in assay [1], 3% in assay [2] and 3% in assay [4]. The inhibition at 10 µM in assay [3] was determined as 0%.
Consider `CN1CCN(CCCn2c(=O)n(C3CCN(C(=S)NC(c4ccccc4)c4ccccc4)CC3)c3ccccc32)CC1` [Compound 78, 1-[(N1-piperidinocarbothioylbiphenylmethylamino)-4-yl]-3-(3-N-(N-Methylpiperazino)propyl)-1,3-dihydrobenzimidazol-2-one], for which the figures for the inhibition at 10 µM in assay [1] and in assay [3] were 41% and 74%, respectively. The inhibition at 1 µM turned out to be 17% in assay [2] and 95% in assay [4].
For `O=c1[nH]c2ccccc2n1C1CCN(C(=S)NCCc2ccccc2)CC1` [Compound 22], the inhibition at 10 µM in assay [1] was determined as 0%; in assay [3], 11%. In addition, the inhibition at 1 µM is 4% in assay [2] and 45% in assay [4].
The matching figures for `COc1cccc(CNC(=S)N2CCC(n3c(=O)[nH]c4ccccc43)CC2)c1OC` [Compound 18]: 3%, 10%, 9% and 22%.
Broadly, the pIC50 is −log10 of the IC50, conventionally taken in molar units. A lower pIC50 goes with a large IC50. As for `CC1CCN(CCCn2c(=O)n(C3CCN(C(=O)NC(c4ccccc4)c4ccccc4)CC3)c3ccccc32)CC1` [Compound 99, 1-[(N1-piperidinocarbonylbiphenylmethylamino)-4-yl]-3-(4-methylpiperidin-1-yl-propyl)-1,3-dihydrobenzimidazol-2-one], the inhibition at 1 µM worked out at 46% in assay [1] and 16% in assay [2]. Further, the inhibition at 10 µM in assay [3] came out at 29%. Further, in assay [4], the pIC50 was 6.90.
For the compound `COC(=O)C(Cc1ccccc1)NC(=S)N1CCC(n2c(=O)n(CCCN3C(=O)c4ccccc4C3=O)c3ccccc32)CC1` (stereo not shown) [Compound 56], the inhibition at 10 µM turned out to be 19% in assay [1] and 22% in assay [3]. Further, the inhibition at 1 µM in assay [2] is 3%. Besides, the pIC50 in assay [4] is 6.44.
For the compound `O=c1[nH]c2ccccc2n1C1CCN(C(=S)NC(c2ccccc2)(c2ccccc2)c2ccccc2)CC1` [Compound 25, 1-[(N1-Piperidinocarbothioyltriphenylmethylamino)-4-yl]-1,3-dihydro-benzimidazol-2-one], the inhibition at 10 µM came to 0% in assay [1] and 13% in assay [3]. Besides, the inhibition at 1 µM in assay [2] and in assay [4] was 0% each time.
As for `O=c1[nH]c2ccccc2n1C1CCN(C(=S)NC(c2ccccc2)c2ccccc2)CC1` [Compound 1, 1-[(N1-Piperidinocarbothioyldiphenylmethylamino)-4-yl]-1,3-dihydro-benzimidazol-2-one], the inhibition at 10 µM in assay [1] is 0%; in assay [3], 52%. The inhibition at 1 µM in assay [2] stood at 38%. Also, in assay [4], the pIC50 is 6.23.
Regarding `NCCCn1c(=O)n(C2CCN(C(=S)NC(c3ccccc3)c3ccccc3)CC2)c2cc(Cl)c(Cl)cc21` [Compound 67, 5,6-Dichloro-1-[(N1-piperidinocarbothioylbenzhydrylamino)-4-yl]-3-(3-aminopropyl)-1,3-dihydro-benzimidazol-2-one], the inhibition at 10 µM in assay [1] worked out at 45%; in assay [3] it was 2%. Moreover, the inhibition at 1 µM in assay [2] is 0%. Moreover, in assay [4], the inhibition at 0.1 µM worked out at 57%.
On to `CN1CCCC1CCn1c(=O)n(C2CCN(C(=O)NC(c3ccccc3)c3ccccc3)CC2)c2ccccc21` (stereo not shown) [Compound 94], for which the results for the inhibition at 1 µM in assay [1], in assay [2] and in assay [4] were 33%, 8% and 68%, respectively. Further, the inhibition at 10 µM in assay [3] turned out to be 78%.
`COc1ccc(C(NC(=S)N2CCC(n3c(=O)n(CCCN)c4ccccc43)CC2)c2ccc(OC)cc2)cc1` [Compound 68, 1-[(N1-Piperidinocarbothioyl-1,1-di(p-anisyl)methylamino)-4-yl]-3-(3-aminopropyl)-1,3-dihydrobenzimidazol-2-one Hydrochloride] gave a pIC50 in assay [1] of 5.34. In addition, the values for the inhibition at 10 µM in assay [1] and in assay [3] were 66% and 11%, respectively. In assay [2], the inhibition at 1 µM was 0%. In assay [4], the inhibition at 0.1 µM was 46%.
With `CCN(CC)CCn1c(=O)n(C2CCN(C(=S)NCc3ccccc3-c3ccccc3)CC2)c2ccccc21` [Compound 90, 1-(N1-Piperidinocarbothioyl-(2-phenylbenzylamino)-4-yl)-3-(2-diethyaminoethyl)benzimidazol-2-one], the inhibition at 1 µM worked out at 27% in assay [1] and 5% in assay [2]. Besides, the inhibition at 10 µM in assay [3] was determined as 13%. In addition, in assay [4], the pIC50 was 7.21.
With `O=c1[nH]c2ccccc2n1C1CCN(C(=S)NCCCc2ccccc2)CC1` [Compound 38], the inhibition at 10 µM in assay [1] worked out at 0%; in assay [3] it was 7%. Besides, the values for the inhibition at 1 µM in assay [2] and in assay [4] were 9% and 25%, respectively.
Turning to `COc1ccc(C(NC(=S)N2CCC(n3c(=O)[nH]c4ccccc43)CC2)c2ccc(OC)cc2)cc1` [Compound 66, 1-[(N1-Piperidinocarbothioyl-1,1-di(p-anisyl)methylamino)-4-yl]-1,3-dihydrobenzimidazol-2-one], the inhibition at 10 µM was found to be 11% in assay [1] and 21% in assay [3]. The inhibition at 1 µM in assay [2] was 0%. The inhibition at 0.1 µM in assay [4] was 15%.
In the case of `CN(CCCn1c(=O)n(C2CCN(C(=S)NC(c3ccccc3)c3ccccc3)CC2)c2ccccc21)C1CCCCC1` [Compound 98, 1-[(N1-piperidinocarbothioylbiphenylmethylamino)-4-yl]-3-(3-N,N-methylcyclohexylaminopropyl)-1,3-dihydrobenzimidazol-2-one], the figures for the pIC50 in assay [1] and in assay [4] were 6.75 and 7.66, respectively. Also, the inhibition at 1 µM in assay [2] was 0%. In addition, the inhibition at 10 µM in assay [3] was determined as 85%.
